Reference: patent publication US20040266008A1, “Polyene polyketides, processes for their production and their use as pharmaceuticals” (Ecopia BioSciences, Inc., priority 2003, published 2004)

How the values were obtained:
[1] = system: C. albicans (Calb); assay: MIC broth microdilution, C. albicans (Calb)
[2] = system: Candida sp. (Cflu); assay: MIC broth microdilution, Candida sp. (Cflu)
[3] = system: C. glabrata (Cgla); assay: MIC broth microdilution, C. glabrata (Cgla)
[4] = system: C. albicans (Ctro); assay: MIC broth microdilution, C. albicans (Ctro)
[5] = system: S. cerevisiae (Scer); assay: MIC broth microdilution, S. cerevisiae (Scer)

`C\C(=C/C=C/C=C/CC/C=C/C(C)C(O)C(C)C(O)/C=C/C=C/C=C/C=C/C=C/C=C/CC(O)C(C)C(=O)CC(O)CC(O)/C=C/CC(O)CC(O)CC(O)/C=C/CC(O)CC(O)/C=C/CC(O)CC(O)CCCNC(=N)N)C(=O)O` (centres unmarked) [Compound 2] was tested, and the “Minimal Inhibitory Concentrations” value ([1]; 48 hrs) was 4 µg/mL, the “Minimal Inhibitory Concentrations” value ([2]; 48 hrs) was 8 µg/mL and the “Minimal Inhibitory Concentrations” value ([3]; 48 hrs) was 4 µg/mL. The “Minimal Inhibitory Concentrations” value ([4]; 48 hrs) was 4 µg/mL and the “Minimal Inhibitory Concentrations” value ([5]; 48 hrs) was 4 µg/mL.
`C\C(=C/C=C/C=C/CC/C=C/C(C)C(O)C(C)C(O)/C=C/C=C/C=C/C=C/C=C/C=C/CC(OS(=O)(=O)O)C(C)C(=O)CC(O)CC(O)/C=C/CC(O)CC(O)CC(O)/C=C/CC(O)CC(O)/C=C/CC(O)CC(O)CCCNC(=N)N)C(=O)O` (centres unmarked) [Compound 1] was tested, and the “Minimal Inhibitory Concentrations” value ([1]; 24 hrs) was 4 µg/mL, the “Minimal Inhibitory Concentrations” value ([2]; 24 hrs) was 8 µg/mL and the “Minimal Inhibitory Concentrations” value ([3]; 24 hrs) was 4 µg/mL. The “Minimal Inhibitory Concentrations” value ([4]; 24 hrs) was 4 µg/mL and the “Minimal Inhibitory Concentrations” value ([5]; 24 hrs) was 4 µg/mL.
With `C[C@@H]1[C@H](O)[C@@H](C)/C=C/C=C/C=C/C=C/C=C/C=C/C=C/[C@H](O[C@@H]2O[C@H](C)[C@@H](O)[C@H](N)[C@@H]2O)C[C@@H]2O[C@](O)(C[C@@H](O)C[C@@H](O)[C@H](O)CC[C@@H](O)C[C@@H](O)CC(=O)O[C@H]1C)C[C@H](O)[C@H]2C(=O)O` [Amphotericin B] the “Minimal Inhibitory Concentrations” value ([1]; 24 hrs) was 0.5 to 1 µg/mL, the “Minimal Inhibitory Concentrations” value ([1]; 48 hrs) was 1 µg/mL and the “Minimal Inhibitory Concentrations” value ([2]; 24 hrs) was 0.5 to 1 µg/mL. The “Minimal Inhibitory Concentrations” value ([2]; 48 hrs) was 1 µg/mL, the “Minimal Inhibitory Concentrations” value ([3]; 24 hrs) was 0.5 to 1 µg/mL and the “Minimal Inhibitory Concentrations” value ([3]; 48 hrs) was 1 µg/mL. For the same molecule, the “Minimal Inhibitory Concentrations” value ([4]; 24 hrs) was 1 µg/mL, the “Minimal Inhibitory Concentrations” value ([4]; 48 hrs) was 2 µg/mL and the “Minimal Inhibitory Concentrations” value ([5]; 24 hrs) was 0.5 µg/mL. For the same molecule, the “Minimal Inhibitory Concentrations” value ([5]; 48 hrs) was 1 µg/mL.
